From US20150165400A1, “CRYSTALLISATION PROCESS” (University of Bradford, priority 2012, published 2015) come the findings set out here.

Data set [1] can be described thus: Stability study of triclinic form recrystallised from cyclohexane, PXRD. Format: physicochemical. The settings on record: recrystallised from cyclohexane at 80° C., vacuum dried. The source says: The product obtained was vacuum dried and the crystal form was confirmed by PXRD.
Data set [2] can be described thus: Pharmacokinetic study of artemisinin, plasma level by HPLC. It is filed as in vivo, albino wistar rats. The conditions noted are these: rats, 100 mg artemisinin in 0.5% aqueous CMC. How it is done:
A pharmacokinetic study of artemisinin was carried out. The study was performed using 36 healthy albino wistar rats with a weight ranging from 180 to 200 grams. The wistar rats were taken and divided into three groups; a control group, the orthorhombic crystal form group and the triclinic crystal form group. A sparse technique was used to collect blood samples (n=6). The animals were housed in standard metabolism cages and were subject to fasting conditions for 12 hours before dosing. The animals were allowed free movement and access to water throughout the experiment. […] At predetermined time intervals, blood samples were obtained by the retro orbital technique and collected in EDTA tubes. Plasma was obtained by centrifugation of the blood sample at 3500 revolutions per minute (rpm) for 15 minutes. A volume of 200 μl of plasma was pipetted into Eppendorf tubes and 100 μl of internal standard (artemether solution […]) and 700 μl methanol were added. […] The collected sample was then subjected to analysis by HPLC. […] The HPLC system consisted of an Agilent 1200 series, UV detector (Agilent Technologies, […], Wokingham, United Kingdom) set at 210 nm and a C18 column (250×4.6 mm). […] The plasma concentration-time profiles were plotted and Areas Under Curve (AUC) were calculated (shown in FIG. 35) using the Trapezoidal rule.

The nature of data set [3]: In-vitro dissolution profile, USP-XXVI paddle method. It is filed as physicochemical. The conditions noted are these: water, 600 ml, 75 rpm, 37° C., 20 mg artemisinin.
The nature of data set [4]: Effect of externally added solvents on extruded triclinic form, stability by PXRD. Format: physicochemical. The text has this:
Effect of different solvents such as acetone, ethanol, cyclohexane, methanol and water on extruded triclinic form was studied. […] FIGS. 21 to 25 show the PXRD patterns highlighting the effect of adding the different solvents to extrude. It was observed that conversion rate from triclinic to orthorhombic form was proportional to solubility of orthorhombic form in each solvent.

As to `C[C@@H]1CC[C@H]2[C@@H](C)C(=O)O[C@@H]3O[C@@]4(C)CC[C@@H]1[C@]32OO4` [artemisinin], the “stability of crystal form (transformation to orthorhombic form)” value in data set [1] is given as “transformed to orthorhombic form within a week”.

On to `C[C@@H]1CC[C@H]2[C@@H](C)C(=O)O[C@@H]3O[C@@]4(C)CC[C@@H]1[C@]32OO4` [orthorhombic form, artemisinin, reference compound], for which, in data set [2] (oral, plasma), the “average maximum concentration (Cmax)” value was found to be 16000 ng/mL and the “average time where the concentration reached a maximum (Tmax)” value stood at 4 h.

In the case of `C[C@@H]1CC[C@H]2[C@@H](C)C(=O)O[C@@H]3O[C@@]4(C)CC[C@@H]1[C@]32OO4` [triclinic form, artemisinin], the “dissolution rate in comparison with starting material” value in data set [3] is “four times greater”. In addition, the “rank order of transformation from triclinic to orthorhombic form” value in data set [4] (0.2 ml solvent added to 3 g extruded sample) is given as “acetone>methanol>ethanol>cyclohexane>water”. The “transformation to orthorhombic form in the sample containing water” value in data set [4] (0.2 ml water added to 3 g extruded sample) is listed as “no transformation was observed”. Also, in data set [2] (albino Wistar, rat, plasma, po, 100 mg, plasma, read-out: average maximum concentration (Cmax)), the Cmax was 31000 ng/mL. For the same compound, the Tmax in data set [2] (albino Wistar, rat, plasma, po, 100 mg, plasma, read-out: average time where the concentration reached a maximum (Tmax)) was 5 h. Also, the “AUC compared with the orthorhombic form” value in data set [2] (oral) is listed as “two fold increase”.
